Assay results from patent US20150368261A1, “CONJUGATES AND SMALL MOLECULES WHICH INTERACT WITH THE CD16A RECEPTOR” (BIOINTEGRATOR LIMITED LIABILITY COMPANY, priority 2013, published 2015).

Biological target: CD16a receptor (Homo sapiens, UniProt P08637)
Test: Enzyme immunoassay (ELISA) for binding of proteins and conjugates with CD16a receptor
Settings: Table 2, interferon alfa and its conjugate (FIG. 17); read-out: Activity (Kd) towards CD16a receptor
Procedure: Determination of conjugate activity towards CD16a receptor. The experiment uses standard materials and equipment for enzyme immunoassay. Into wells of a 96-well plate CD16a was sorbed from a solution of 3.3 μg/ml in PBS in a volume of 75 μl/well. Sorption was carried out at 4° C. during 16 h. CD16a Solution was removed from the plate, wells were filled in with 2% solution of bovine serum albumin (BSA) in PBS-p (150 μl/well). Plates were incubated at 37° C. for 2 h and three times washed with PBS-p (each time by 300 μl/well). Then the wells were filled with solutions of the conjugates in PBSP, 50 μl/well in dilutions from 0.25 to 256 μg/ml. To each dilution of the conjugate three wells corresponded in the plate. In order to control non-specific sorption of samples some wells were filled with […] BSA solution. The plate was incubated 1 h at 37° C. in a shaker for ELISA (rotation speed was 180 rpm). The plate was washed five times with 300 μl/well of PBS-p and filled with a solution of a protein modified with horseradish peroxidase (by 75 μl/well in the working dilution, which is given in the description of immunoconjugate). The plate was incubated for 30 minutes, washed five times with 300 μl/well of PBS-p and filled with a solution of TMB (100 μl/well). […] The optical density in the plate wells was measured at 450 nm at room temperature. […]

CD16a receptor, sequence (P08637 17-254): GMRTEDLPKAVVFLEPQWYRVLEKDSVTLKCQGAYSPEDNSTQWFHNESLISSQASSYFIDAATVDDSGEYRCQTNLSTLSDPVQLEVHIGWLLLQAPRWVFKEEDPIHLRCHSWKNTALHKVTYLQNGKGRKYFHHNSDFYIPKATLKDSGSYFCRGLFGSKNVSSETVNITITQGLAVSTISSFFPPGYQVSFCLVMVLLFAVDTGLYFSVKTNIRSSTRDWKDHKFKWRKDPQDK

Kd: 230 nM
Substance: interferon alfa
